Source: patent US9427458B2, “Methods for inhibiting cancer cell proliferation” (Consejo Nacional de Investigaciones Cientificas y Tecnicas, …, priority 2010, dated 2016)
Entries after “also recorded” stand apart in the source; their conditions may differ.

What was measured:
[1] = test system: human cyclin D1 promoter; assay: ChIP of Stat3 and ErbB-2 on the human cyclin D1 promoter in T47D cells; type: cell-based; conditions: MPA 30 min, primers flanking the −984 GAS site
Experimental: (§1) ChIP was performed as described elsewhere (Hawthorne et al., 2005) with minor modifications. Briefly, chromatin was sonicated to an average of about 500 bp. Sonicated chromatin was then immunoprecipitated using 4 μg of either an anti-ErbB-2 or an anti-Stat3 antibody and rabbit IgG as control. The IP was collected using Protein A beads (Upstate Biotechnology, Lake Placid, N.Y.), which were washed repeatedly to remove nonspecific DNA binding. The chromatin was eluted from the beads and crosslinks were removed overnight at 65° C. DNA was then purified and quantified using real-time PCR. For sequential ChIP experiments, Stat3 immunoprecipitates were eluted with DTT and then subjected to a second round of immunoprecipitation with ErbB-2 antibody or with IgG.
(§2) ChIP DNA was amplified by real-time PCR (qPCR), performed with an ABI Prism 7500 sequence detector using SYBR green PCR master mix (Applied Biosystems, Foster City, Calif.). The primers used were as follows: 5′-TTCCGGTGGTCTGGTTCCT-3′ (SEQ ID NO:12) and 5′-[…]-3′(SEQ ID NO:13) designed to amplify a region of the mouse cyclin D1 promoter containing two GAS sites (−971 and −874), 5′-[…]-3′(SEQ ID NO:14) and 5′-[…]-3′ (SEQ ID NO:15) designed to amplify a region of the human cyclin D1 promoter containing one GAS site (−984). These primers were designed with “Primer Express” real-time PCR primer design software (Applied Biosystems). […]

[2] = test system: cyclin D1 promoter; assay: Human cyclin D1 promoter luciferase reporter in T47D cells; type: cell-based; conditions: MPA 24 h
From the text: The luciferase reporter plasmid downstream the cyclin D1 human promoter region (−1745 cyclin D1-luc), and constructs truncated at positions −963, −261, −141, were kindly provided by Dr. R. Pestell (Northwestern University Medical School, Chicago, Ill.). These constructs were generated by truncation of the 1745-bp length promoter in order to sequentially exclude 5′ regions of the promoter. The −963 cyclin D1-luc construct excludes one GAS site (−984), the −261 cyclin D1-luc excludes three GAS sites (−984, −568 and −475) and the −141 cyclin D1-luc excludes four GAS sites (−984, −568, −475 and −239). The empty vector pA3 Luc was also provided by Dr. R. Pestell. The luciferase reporter plasmid containing four copies of the m67 high-affinity binding site (p4×m67-tk-luc) and the pTATA-tk-Luc reporter lacking the m67 insertion were a gift from Dr J. Darnell (The Rockefeller University, New York, N.Y.). The Renilla luciferase expression plasmid RLCMV was obtained from Promega (Madison, Wis.). […] Triplicate samples were analyzed for each datum point. Differences between experimental groups were analyzed by ANOVA followed by Tukey test between groups.

[3] = test system: ErbB-2; assay: ErbB-2 cellular localization (subcellular fractionation/immunoblot, confocal microscopy) in T47D cells; type: cell-based, human; conditions: MPA treatment of T47D cells, 15 to 60 min
Experimental: (§3) Lysates were prepared from cells subjected to the different treatments and proteins were subjected to SDS-PAGE as previously described (21). Membranes were immunoblotted with the antibodies detailed in each experiment. When phospho(p)-protein antibodies were used, filters were reprobed with total protein antibodies. Signal intensities of pErbB-2, pStat3, pSrc, pPR, pJak1, and pJak2 bands were analyzed by densitometry and normalized to total protein bands. Similarly, signal intensities of PR, cyclin D1, Stat3, and ErbB-2 bands were normalized to actin or β tubulin bands. […]
(§4) Cells grown on glass coverslips were fixed and permeabilized in ice-cold methanol and were then blocked with PBS 1% BSA. ErbB-2 was localized using either a rabbit polyclonal (C-18) or a mouse monoclonal (F-11) ErbB-2 antibody (Santa Cruz Biotechnology) and Stat3 was detected using a mouse monoclonal antibody (124H6, Cell Signaling), followed by incubation with a goat anti-rabbit IgG-Alexa 488 (Molecular Probes, Eugene, Oreg.) secondary antibody for ErbB-2 (C-18) and with a rhodamine conjugated goat anti-mouse secondary antibody (Jackson ImmunoResearch Laboratories, West Grove, Pa.) for both ErbB2 (F-11) and Stat3. […] When cells were transfected with hErbB-2ΔNLS, green fluorescent protein from this expression vector was visualized by direct fluorescence imaging. […]

[4] = test system: Stat3; assay: Stat3 phosphorylation and nuclear translocation in T47D cells; type: cell-based, human; conditions: MPA treatment of T47D cells
Experimental: (§5) Lysates were prepared from cells subjected to the different treatments and proteins were subjected to SDS-PAGE as previously described (21). Membranes were immunoblotted with the antibodies detailed in each experiment. When phospho(p)-protein antibodies were used, filters were reprobed with total protein antibodies. Signal intensities of pErbB-2, pStat3, pSrc, pPR, pJak1, and pJak2 bands were analyzed by densitometry and normalized to total protein bands. Similarly, signal intensities of PR, cyclin D1, Stat3, and ErbB-2 bands were normalized to actin or β tubulin bands. […] The NEPER Nuclear and Cytoplasmic Extraction Reagents technique (Pierce Biotechnology) was performed as per manufacturer's instructions. Nuclear association between ErbB-2 and Stat3 was studied by performing coimmunoprecipitation experiments using 200 μg of nuclear protein lysates as described (22).
(§6) Cells grown on glass coverslips were fixed and permeabilized in ice-cold methanol and were then blocked with PBS 1% BSA. ErbB-2 was localized using either a rabbit polyclonal (C-18) or a mouse monoclonal (F-11) ErbB-2 antibody (Santa Cruz Biotechnology) and Stat3 was detected using a mouse monoclonal antibody (124H6, Cell Signaling), followed by incubation with a goat anti-rabbit IgG-Alexa 488 (Molecular Probes, Eugene, Oreg.) secondary antibody for ErbB-2 (C-18) and with a rhodamine conjugated goat anti-mouse secondary antibody (Jackson ImmunoResearch Laboratories, West Grove, Pa.) for both ErbB2 (F-11) and Stat3. Negative controls were carried out using PBS instead of primary antibodies, or 5× competitive peptide (Santa Cruz Biotechnology) when ErbB-2 (C-18) was used. When cells were transfected with hErbB-2ΔNLS, green fluorescent protein from this expression vector was visualized by direct fluorescence imaging. […] FIGS. 2A, 3B and C, illustrate a few cells representative of the ones examined. Cells were analyzed using a Nikon Eclipse E800 confocal laser microscopy system (22).

[5] = test system: ErbB-2; assay: ErbB-2 tyrosine phosphorylation by Western blot in T47D cells; type: cell-based, human; conditions: MPA
Experimental: (§7) Primary cultures of epithelial cells from C4HD tumors were performed as described (2). T47D cells were obtained from American Type Culture Collection and T47D-Y cells were a generous gift from Dr. K. Horwitz (Denver, Colo.). To evaluate the effects of the pharmacological inhibitors on MPA-induced proteins phosphorylation or cyclin D1 expression, cells were preincubated for 90 min with RU486, PP2, Tyrphostin AG825 or Jak inhibitor I before addition of MPA. Cell proliferation was evaluated by [3H]-thymidine incorporation assay and cell cycle distribution was analyzed by flow cytometry, as described (22).
as §5

[6] = test system: cyclin D1 promoter; assay: Human cyclin D1 promoter luciferase reporter in C4HD cells; type: cell-based, mouse; conditions: MPA 24 h
From the text: The luciferase reporter plasmid downstream the cyclin D1 human promoter region (−1745 cyclin D1-luc), and constructs truncated at positions −963, −261, −141, were kindly provided by Dr. R. Pestell (Northwestern University Medical School, Chicago, Ill.). These constructs were generated by truncation of the 1745-bp length promoter in order to sequentially exclude 5′ regions of the promoter. The −963 cyclin D1-luc construct excludes one GAS site (−984), the −261 cyclin D1-luc excludes three GAS sites (−984, −568 and −475) and the −141 cyclin D1-luc excludes four GAS sites (−984, −568, −475 and −239). The empty vector pA3 Luc was also provided by Dr. R. Pestell. The luciferase reporter plasmid containing four copies of the m67 high-affinity binding site (p4×m67-tk-luc) and the pTATA-tk-Luc reporter lacking the m67 insertion were a gift from Dr J. Darnell (The Rockefeller University, New York, N.Y.). The Renilla luciferase expression plasmid RLCMV was obtained from Promega (Madison, Wis.). Dominant negative Stat3 expression vector, Stat3Y705-F, which carries a tyrosine to phenylalanine substitution at codon 705 that reduces phosphorylation on tyrosine of the wild-type Stat3 protein, therefore inhibiting both dimerization and DNA binding of Stat3 (6,7,16) was kindly provided by Dr J. Darnell (New York, USA). The empty pcDNA3.1 vector was also a gift of Dr J. Darnell. Human wild-type ErbB-2 expression vector (hErbB-2WT) as well as the empty pMe18SM vector were a gift from by Dr. T. Yamamoto (University of Tokyo, Japan) (1). The GFP-tagged human ErbB-2 mutant which lacks the putative nuclear localization signal sequence (aa 676-KRRQQKIRKYTMRR-689) (SEQ ID NO:3), resulting in the sequence of KLM at the deletion junction (hErbB-2ΔNLS), was generously provided by Dr. M. C. Hung (The University of Texas M.D. Anderson Cancer Center, Houston, Tex.) (Giri et al., 2005). The empty pEGFP-N1 vector was obtained from BD Biosciences Clontech (Palo Alto, Calif.). The plasmid encoding the human wild-type hPR-B was kindly provided by Dr. K. Horwitz. In experiments assessing MPA capacity to induce the transcriptional activation of Stat3, C4HD and T47D cells were transiently transfected for 48 h with 1 μg of −1745 cyclin D1-luc reporter plasmid or the truncated −963, −261 and −141 constructs, or with 1 μg p4×m67-tk-luc and 10 ng of RL-CMV used to correct variations in transfection efficiency. As control, cells were transfected with 1 μg of either the pA3 Luc or pTATA-tk-Luc reporters. Cells were cotransfected with 2 μg of Stat3Y705-F when indicated. Total amount of transfected DNA was standardized by adding the empty pcDNA3.1 vector. […] Triplicate samples were analyzed for each datum point. Differences between experimental groups were analyzed by ANOVA followed by Tukey test between groups.

[7] = test system: Stat3; assay: Stat3 phosphorylation and nuclear translocation in C4HD cells; type: cell-based, mouse; conditions: MPA treatment of C4HD cells
Experimental: as §5
siRNAs targeting ErbB-2, Stat3, and Pr were synthesized by Dharmacon, Inc (Lafayatte, Colo.) (ErbB-2siRNA: 5′GAUGGUGCUUACUCAUUGA3′ (SEQ ID NO:8), designed to specifically knockdown mouse ErbB2 but not human ErbB-2; Stat3siRNA: 5′[…]3′ (SEQ ID NO:9) targets mouse Stat3; and 5′[…]3′ (SEQ ID NO:10) targets human Stat3; PRsiRNA: 5′[…]3′(SEQ ID NO:11)). […] Transfection of siRNAs duplexes was performed by using the DharmaFECT transfection reagent following the manufacturer's direction for 3 days. For reconstitution experiments cotransfection of 25 nM ErbB-2 siRNA with 2 μg expression vectors was performed using DharmaFECT Duo transfection reagent (Dharmacon).
as §6

[8] = test system: cyclin D1; assay: Cyclin D1 protein levels by Western blot in C4HD cells; type: cell-based, mouse
Experimental: as §7
as §5, with “Nuclear association between ErbB-2 and Stat3 was studied by performing coimmunoprecipitation experiments using 200 μg of nuclear protein lysates as described (22).” left out

[9] = test system: mouse cyclin D1 promoter; assay: ChIP of Stat3 and ErbB-2 on the mouse cyclin D1 promoter in C4HD cells; type: cell-based; conditions: MPA 30 min
Experimental: as §1, §2

[10] = test system: ErbB-2; assay: ErbB-2 tyrosine phosphorylation by Western blot in C4HD cells; type: cell-based, mouse; conditions: MPA treatment of C4HD cells
Experimental: as §7
as §5, with “Nuclear association between ErbB-2 and Stat3 was studied by performing coimmunoprecipitation experiments using 200 μg of nuclear protein lysates as described (22).” left out

[11] = test system: ErbB-2; assay: ErbB-2 cellular localization (subcellular fractionation/immunoblot, confocal microscopy) in C4HD cells; type: cell-based, mouse; conditions: MPA treatment of C4HD cells, 15 to 60 min
Experimental: as §3, §4

[12] = versus cells untreated with MPA

CC(=O)O[C@]1(C(C)=O)CC[C@H]2[C@@H]3C[C@H](C)C4=CC(=O)CC[C@]4(C)[C@H]3CC[C@@]21C [MPA, Medroxyprogesterone acetate]
occupancy by Stat3 and ErbB-2 of the human cyclin D1 promoter [1]: striking increase | increase in cyclin D1 promoter activity [2, 12]: 3 fold | ErbB-2 nuclear translocation [3]: resulted in ErbB-2 nuclear localization; also recorded: induced a strong ErbB-2 protein nuclear translocation | Stat3 nuclear translocation ([4]; 30 and 60 min): induced nuclear translocation of Stat3; also recorded: present at the nuclear compartment and strongly phosphorylated at Tyr 705 | nuclear colocalization of ErbB-2 and Stat3 ([4]; 30 min, confocal): strong nuclear colocalization | ErbB-2 phosphorylation at Tyr 1222 or Tyr 877 ([5]; PR-null T47D cells (T47D-Y)): no effect | ErbB-2 phosphorylation at Tyr 1222 and Tyr 877 ([5]; T47D-Y cells transfected with human PR-B (T47D-Y-PR-B)): markedly enhanced | increase in cyclin D1 promoter activity [6, 12]: 3 fold | Stat3 nuclear translocation ([7]; 30 and 60 min): induced nuclear translocation of Stat3; also recorded: present at the nuclear compartment and strongly phosphorylated at Tyr 705 | nuclear colocalization of ErbB-2 and Stat3 ([7]; 30 min, confocal): strong nuclear colocalization | cyclin D1 protein levels ([8]; MPA treatment of C4HD cells): significant increase | binding of nuclear Stat3 and ErbB-2 to the mouse cyclin D1 promoter [9]: significant and specific | ErbB-2 phosphorylation at Tyr 1272 and Tyr 927 [10]: induces a rapid phosphorylation | ErbB-2 nuclear translocation [11]: resulted in ErbB-2 nuclear localization; also recorded: induced a strong ErbB-2 protein nuclear translocation

Stat3Y705-F: Dominant negative Stat3 expression vector, tyrosine to phenylalanine substitution at codon 705
MPA-induced cyclin D1 promoter activation ([2]; pretreatment or cotransfection): absolutely inhibited | MPA-induced cyclin D1 promoter activation ([6]; pretreatment or cotransfection): absolutely inhibited

5′GGUCAAAUUUCCUGAGUUGUU3′ (other strand missing, further chemistry not given here) [Stat3 siRNAs, siRNA that targets mouse Stat3]
MPA-induced cyclin D1 protein levels ([8]; C4HD cells preincubated or transfected, then MPA for 48 h): abrogated
